Experimental data: patent US5733719A, “Method of making an assay compound” (priority 1995, dated 1998)
Where a name gives a salt, the structure may show the parent alone.

Columns and labels:
[1] = tested on: Lymphs; experiment: Peptidases to distinguish leukemia from non-leukemia, lymphocytes; format: cell-based, human; parameters: unit not given here
Text: (§1) Artificial intelligence was used to analyze data of cellular enzyme functions, and determine normal and disease states. Peptidases were used to distinguish leukemia from non-leukemia (output pattern). For input patterns lymphocyte and granulocyte cell types were used with aminopeptidases, cathepsins and dipeptidylpeptidase enzyme activities. In this Example, illustrated in Tables 6A-6C, three normals and three leukemia patients were used as known output patterns for the neural network to learn (in practice, the larger the learning set the more accurate unknown prediction will be). Unknowns were then presented to the learned algorithm as shown in the test case examples. Clinical diagnosis was confirmed by physicians. The trained neural network was able to correctly classify the leukemia from the non-leukemia.

[2] = tested on: Grans; experiment: Peptidases to distinguish leukemia from non-leukemia, granulocytes; format: cell-based, human; parameters: unit not given here
Text: as §1

[3] = tested on: enzyme; experiment: Effect of dithioerythritol (DTE) on substrate sensitivity; details: dithioerythritol (DTE) at 1 mM
Text: Modulators are components used to […] the sensitivity of the enzyme for the leaving group. The modulators speed up or slow down the activity of an enzyme by changing the active site. […] Preferred modulators for particular enzymes are included in Table 1.

[4] = tested on: acute lympholytic Ficoll prepared lymphocytes; experiment: Amino peptidase activity in acute lymphocytic leukemia lymphocytes; format: cell-based; details: FIG. 4B, log fluorescence at 525 nm v. time
Text: The cell's ability to fight off an invader lies within its genetics and therefore cell type. The "readiness" however of any genetically capable group of cells to defend is different. A measure of this "readiness" is manifest in the available proteolytic enzymes contained within vacuoles or on the surface of the cell. The assay compound hydrolysis rate increases with increased mass of enzymes giving a picture of immune competence both in number of cells and activity level. […] Images were generated using Universal Imaging.

[5] = tested on: aminopeptidase; experiment: Inhibition of aminopeptidase reaction with (H-L-Asp)2 rhodamine 110; format: biochemical; details: approximately 10 mM
Text: The chemical nature of the buffer is important to the reactivity of the assay compound with the cellular enzymes. […] In addition, the assay compound hydrolysis by the enzyme occurs at an increased rate of reaction.

[6] = tested on: cells; details: even when buffered
Protocol: Viability is confirmed with Trypan Blue or PI-FDA over a time period of 10 seconds to 30 minutes. If the viability of the cell sample at between one and three million cells/mL decreases by10% then the salt of the compound is rejected and another salt of the assay compound is synthesized.

[7] = Effect of sodium chloride on dipeptide reagent; details: 7mM, pH range of 6.5 to 8.7
Text: Inhibitors and poisons (or toxins) are components that can be added to reduce the activity of non-targeted enzymes that provide competing reactions for the leaving group. Inhibitors are usually very selective for a particular enzyme. For example, EDTA only works with enzymes requiring Ca^+2, Mg^+2 and some other metals. […] Preferred inhibitors for particular enzymes are included in Table 1.

[8] = Native free fluorescence; format: physicochemical
Text: Assays for peptidases using assay compounds generate fluorescence generally in the range of 10^-5 to 10^-6 Molar free rhodamine 110. Therefore, it is preferred that the free rhodamine 110 and blocked peptide impurities in the assay reagent should be removed to a concentration of less than the fluorescence generated by about 1×10^-6 M and more preferably less than the fluorescence generated by about 10^-7 Molar free indicator group. This amounts to a 100,000 photon count using rhodamine 110 as a standard at 10^-7 -10^-8 M, preferably 5×10^-8 M in a 1 cm path length cuvette when measured over 10 min. on a photon counting spectrofluorometer manufactured by the SLM Company of Chicago, Ill. This corresponds to a use level on the flow cytometer where no cellular false positive can be detected for a 10 minute period at the highest sensitivity setting. […] The presence of impurities causes a decrease in the storage stability of the compound, resulting in an increased autohydrolysis which leads to increased background fluorescence. A compound should be free of impurities such that when the compound (or reagent containing the compound) is stored at 4° C. for 30 days, preferably 90 days, more preferably 180 days, most preferably one year, the background fluorescence increases less than 10%, preferably less than 5%, most preferably less than 1% over these time periods, respectively. […]

NCC(=O)Nc1ccc2c(c1)Oc1cc(NC(=O)CN)ccc1C21OC(=O)c2ccccc21 [GLY, (Gly)2 Rho 110]
enzyme activity ([1]; J4 11/21/91 acute leuk.): 14.02
enzyme activity ([1]; J4 12/2/91 AL): 27.32
enzyme activity ([1]; J4 12/3/91 acute leuk.): 31.51
enzyme activity ([1]; J5 11/27/91 AML): 28.36
enzyme activity ([1]; J19 11/27/91 CLL): 11.39
enzyme activity ([1]; J22 12/2/91 AML): 24.50
enzyme activity ([1]; J22 12/9/91 AML): 27.14
enzyme activity ([1]; N99° normal): 30.68
enzyme activity ([1]; N191 normal): 43.57
enzyme activity ([1]; N192 normal): 37.47
enzyme activity ([1]; N193 normal): 39.30
enzyme activity ([1]; N194 normal): 39.76
enzyme activity ([1]; N195 normal): 48.18
enzyme activity ([1]; N197 normal): 42.96
enzyme activity ([1]; N200 normal): 42.28
enzyme activity ([1]; N201 normal): 45.32
enzyme activity ([1]; N202 normal): 44.55
enzyme activity ([1]; N206 normal): 55.56
enzyme activity ([1]; P68 tachycardia): 59.29
enzyme activity ([1]; P69 pancreatic CA): 67.38
enzyme activity ([1]; P70 cirrhosis/hemobilia): 54.84
enzyme activity ([1]; P71 ac. pyelonephritis): 41.93
enzyme activity ([2]; J4 11/21/91 acute leuk.): 27.79
enzyme activity ([2]; J4 12/2/91 AL): 47.74
enzyme activity ([2]; J4 12/3/91 acute leuk.): 48.53
enzyme activity ([2]; J5 11/27/91 AML): 56.33
enzyme activity ([2]; J19 11/27/91 CLL): 48.80
enzyme activity ([2]; J22 12/2/91 AML): 34.02
enzyme activity ([2]; J22 12/9/91 AML): 38.47
enzyme activity ([2]; N99° normal): 45.00
enzyme activity ([2]; N191 normal): 73.20
enzyme activity ([2]; N192 normal): 43.67
enzyme activity ([2]; N193 normal): 63.33
enzyme activity ([2]; N194 normal): 60.30
enzyme activity ([2]; N195 normal): 79.13
enzyme activity ([2]; N197 normal): 76.88
enzyme activity ([2]; N200 normal): 59.39
enzyme activity ([2]; N201 normal): 75.48
enzyme activity ([2]; N202 normal): 66.22
enzyme activity ([2]; N206 normal): 91.93
enzyme activity ([2]; P68 tachycardia): 100.00
enzyme activity ([2]; P69 pancreatic CA): 88.04
enzyme activity ([2]; P70 cirrhosis/hemobilia): 88.42
enzyme activity ([2]; P71 ac. pyelonephritis): 59.35
effect of DTE on sensitivity [3]: decreases the sensitivity

CC(C)C[C@H](N)C(=O)Nc1ccc2c(c1)Oc1cc(NC(=O)[C@@H](N)CC(C)C)ccc1C21OC(=O)c2ccccc21 [LEU, (Leu)2 Rho 110]
enzymatic activity [4]: lost their enzymatic activity

O=C1OC2(c3ccc(NC(=O)[C@@H]4CCCN4)cc3Oc3cc(NC(=O)[C@@H]4CCCN4)ccc32)c2ccccc21 [PRO, (H--L--Pro)2 Rho 110-2TFA]
enzyme activity ([1]; J4 11/21/91 acute leuk.): 0.47
enzyme activity ([1]; J4 12/2/91 AL): 0.29
enzyme activity ([1]; J4 12/3/91 acute leuk.): 0.24
enzyme activity ([1]; J5 11/27/91 AML): 0.89
enzyme activity ([1]; J19 11/27/91 CLL): 0.44
enzyme activity ([1]; J22 12/2/91 AML): 0.40
enzyme activity ([1]; J22 12/9/91 AML): 0.44
enzyme activity ([1]; N99° normal): 1.02
enzyme activity ([1]; N191 normal): 0.69
enzyme activity ([1]; N192 normal): 1.14
enzyme activity ([1]; N193 normal): 0.95
enzyme activity ([1]; N194 normal): 0.86
enzyme activity ([1]; N195 normal): 0.88
enzyme activity ([1]; N197 normal): 0.57
enzyme activity ([1]; N200 normal): 0.74
enzyme activity ([1]; N201 normal): 1.10
enzyme activity ([1]; N202 normal): 0.89
enzyme activity ([1]; N206 normal): 1.28
enzyme activity ([1]; P68 tachycardia): 0.70
enzyme activity ([1]; P69 pancreatic CA): 0.66
enzyme activity ([1]; P70 cirrhosis/hemobilia): 0.56
enzyme activity ([1]; P71 ac. pyelonephritis): 0.52
enzyme activity ([2]; J4 11/21/91 acute leuk.): 5.77
enzyme activity ([2]; J4 12/2/91 AL): 3.59
enzyme activity ([2]; J4 12/3/91 acute leuk.): 3.68
enzyme activity ([2]; J5 11/27/91 AML): 5.92
enzyme activity ([2]; J19 11/27/91 CLL): 5.50
enzyme activity ([2]; J22 12/2/91 AML): 4.03
enzyme activity ([2]; J22 12/9/91 AML): 3.53
enzyme activity ([2]; N99° normal): 4.85
enzyme activity ([2]; N191 normal): 4.34
enzyme activity ([2]; N192 normal): 4.34
enzyme activity ([2]; N193 normal): 4.75
enzyme activity ([2]; N194 normal): 3.75
enzyme activity ([2]; N195 normal): 4.70
enzyme activity ([2]; N197 normal): 3.76
enzyme activity ([2]; N200 normal): 4.04
enzyme activity ([2]; N201 normal): 6.42
enzyme activity ([2]; N202 normal): 4.96
enzyme activity ([2]; N206 normal): 6.13
enzyme activity ([2]; P68 tachycardia): 7.19
enzyme activity ([2]; P69 pancreatic CA): 5.70
enzyme activity ([2]; P70 cirrhosis/hemobilia): 0.66
enzyme activity ([2]; P71 ac. pyelonephritis): 6.33
effect of DTE on sensitivity [3]: decreases the sensitivity

[Ca+2].[Cl-].[Cl-] [calcium chloride]
inhibition of enzyme reaction with (H-L-Asp)2 rhodamine 110 [5]: inhibitory

Br.Cc1ncc(C)n2nc(CCc3nc(-c4ccccc4)cn3C)nc12 [hydrogen bromide (HBr), hydrogen bromide]
effect on cells [6]: kills cells

[Cl-].[Na+] [sodium chloride]
inhibitory effect on dipeptide reagent [7]: slightly inhibitory effect

CC(C)C[C@H](N)C(=O)NCC(=O)Nc1ccc2c(c1)Oc1cc(NC(=O)CNC(=O)[C@@H](N)CC(C)C)ccc1C21OC(=O)c2ccccc21 [tartrate salt of (LeuGly)2 rhodamine 110, (H--L--Leu--Gly)2 Rho 110-2Tartrate]
native free fluorescence [8]: 61,000 photons
